In the supplement of paper PMC10307832 one finds relative viability data, which are given here for one cell line.

Holding throughout (assay): relative viability (nuclei count vs DMSO), 5 days (fraction); higher = more cells survive
Compound in the assay “R406 + Linsitinib”: COc1cc(Nc2ncc(F)c(Nc3ccc4c(n3)NC(=O)C(C)(C)O4)n2)cc(OC)c1OC [R406] + C[C@]1(O)C[C@@H](c2nc(-c3ccc4ccc(-c5ccccc5)nc4c3)c3c(N)nccn32)C1 [Linsitinib] (partner 1 µM)
In a few lines:
(§1)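 Lung cancer cell lines in 1536-well plates were dosed by pin tool the day after seeding, either with one drug alone or with a fixed anchor-drug dose plus five library-drug doses (not always all listed) in √10 steps. After 5 days, cells were fixed and their nuclei stained in one step (final 0.05% Triton X-100, 1% formaldehyde, 1 ug/ml Hoechst), then counted on 4× images. Relative viability is the nuclei count in treated wells divided by that in vehicle wells. Values are medians of duplicate plates.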

Compound in the assay “Daporinad + Bortezomib”: O=C(/C=C/c1cccnc1)NCCCCC1CCN(C(=O)c2ccccc2)CC1 [Daporinad] + CC(C)C[C@H](NC(=O)[C@H](Cc1ccccc1)NC(=O)c1cnccn1)B(O)O [Bortezomib] (partner 0.002 µM)
In a few lines:
as §1

Compound in the assay “Daporinad + Tozasertib”: O=C(/C=C/c1cccnc1)NCCCCC1CCN(C(=O)c2ccccc2)CC1 [Daporinad] + Cc1cc(Nc2cc(N3CCN(C)CC3)nc(Sc3ccc(NC(=O)C4CC4)cc3)n2)n[nH]1 [Tozasertib] (partner 0.1 µM)
In a few lines: as §1

Compound in the assay “Daporinad + Dasatinib”: O=C(/C=C/c1cccnc1)NCCCCC1CCN(C(=O)c2ccccc2)CC1 [Daporinad] + Cc1nc(Nc2ncc(C(=O)Nc3c(C)cccc3Cl)s2)cc(N2CCN(CCO)CC2)n1 [Dasatinib] (partner 0.075 µM)
The procedure, abridged: as §1

Regarding UMC-11, the relative viability in the assay with R406 + Linsitinib (first compound 0.08 µM) was determined as 1.1; in the assay with R406 + Linsitinib (first compound 0.253 µM), 1.1; in the assay with R406 + Linsitinib (first compound 0.8 µM), 1.16; in the assay with R406 + Linsitinib (first compound 2.53 µM) it was 0.935; with R406 + Linsitinib (first compound 8 µM), 0.474; in the assay with Daporinad + Bortezomib (first compound 0.0005 µM), 0.668. The relative viability with Daporinad + Bortezomib (first compound 0.001581 µM) was 0.373; with Daporinad + Bortezomib (first compound 0.005 µM), 0.678; with Daporinad + Bortezomib (first compound 0.01581 µM), 0.827; with Daporinad + Tozasertib (first compound 0.0005 µM), 0.21; in the assay with Daporinad + Tozasertib (first compound 0.001581 µM), 0.208; in the assay with Daporinad + Tozasertib (first compound 0.005 µM), 0.207. In addition, the relative viability with Daporinad + Tozasertib (first compound 0.01581 µM) is 0.2; in the assay with Daporinad + Dasatinib (first compound 0.0005 µM), 0.486; with Daporinad + Dasatinib (first compound 0.001581 µM) it was 0.507; in the assay with Daporinad + Dasatinib (first compound 0.005 µM), 0.394; with Daporinad + Dasatinib (first compound 0.01581 µM), 0.505.
